Measurements as given in US20240208992A1, “MACROCYCLES AS CFTR MODULATORS” (Idorsia Pharmaceuticals Ltd, priority 2021, published 2024).

Target: human F508del-CFTR (Homo sapiens, UniProt P13569, DEL508-508)
Assay: F508del-CFTR cell surface expression (corrector activity), DiscoveRx ß-galactosidase complementation chemiluminescence assay in recombinant U2OS cell line;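 also: U2OS cells co-expressing ProLink-tagged F508del-CFTR and a membrane-anchored enzyme acceptor, where more surface CFTR restores β-galactosidase activity measured by chemiluminescence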
Settings: U2OS cell line, 16h compound incubation; for Emax: U2OS, in relation to the Emax of the corrector lumacaftor (=100%), arithmetic mean values; for EC50: EC50, F508del-CFTR cell surface expression, geomean values

human F508del-CFTR, sequence (P13569 with tags, fused parts or gaps DEL508-508): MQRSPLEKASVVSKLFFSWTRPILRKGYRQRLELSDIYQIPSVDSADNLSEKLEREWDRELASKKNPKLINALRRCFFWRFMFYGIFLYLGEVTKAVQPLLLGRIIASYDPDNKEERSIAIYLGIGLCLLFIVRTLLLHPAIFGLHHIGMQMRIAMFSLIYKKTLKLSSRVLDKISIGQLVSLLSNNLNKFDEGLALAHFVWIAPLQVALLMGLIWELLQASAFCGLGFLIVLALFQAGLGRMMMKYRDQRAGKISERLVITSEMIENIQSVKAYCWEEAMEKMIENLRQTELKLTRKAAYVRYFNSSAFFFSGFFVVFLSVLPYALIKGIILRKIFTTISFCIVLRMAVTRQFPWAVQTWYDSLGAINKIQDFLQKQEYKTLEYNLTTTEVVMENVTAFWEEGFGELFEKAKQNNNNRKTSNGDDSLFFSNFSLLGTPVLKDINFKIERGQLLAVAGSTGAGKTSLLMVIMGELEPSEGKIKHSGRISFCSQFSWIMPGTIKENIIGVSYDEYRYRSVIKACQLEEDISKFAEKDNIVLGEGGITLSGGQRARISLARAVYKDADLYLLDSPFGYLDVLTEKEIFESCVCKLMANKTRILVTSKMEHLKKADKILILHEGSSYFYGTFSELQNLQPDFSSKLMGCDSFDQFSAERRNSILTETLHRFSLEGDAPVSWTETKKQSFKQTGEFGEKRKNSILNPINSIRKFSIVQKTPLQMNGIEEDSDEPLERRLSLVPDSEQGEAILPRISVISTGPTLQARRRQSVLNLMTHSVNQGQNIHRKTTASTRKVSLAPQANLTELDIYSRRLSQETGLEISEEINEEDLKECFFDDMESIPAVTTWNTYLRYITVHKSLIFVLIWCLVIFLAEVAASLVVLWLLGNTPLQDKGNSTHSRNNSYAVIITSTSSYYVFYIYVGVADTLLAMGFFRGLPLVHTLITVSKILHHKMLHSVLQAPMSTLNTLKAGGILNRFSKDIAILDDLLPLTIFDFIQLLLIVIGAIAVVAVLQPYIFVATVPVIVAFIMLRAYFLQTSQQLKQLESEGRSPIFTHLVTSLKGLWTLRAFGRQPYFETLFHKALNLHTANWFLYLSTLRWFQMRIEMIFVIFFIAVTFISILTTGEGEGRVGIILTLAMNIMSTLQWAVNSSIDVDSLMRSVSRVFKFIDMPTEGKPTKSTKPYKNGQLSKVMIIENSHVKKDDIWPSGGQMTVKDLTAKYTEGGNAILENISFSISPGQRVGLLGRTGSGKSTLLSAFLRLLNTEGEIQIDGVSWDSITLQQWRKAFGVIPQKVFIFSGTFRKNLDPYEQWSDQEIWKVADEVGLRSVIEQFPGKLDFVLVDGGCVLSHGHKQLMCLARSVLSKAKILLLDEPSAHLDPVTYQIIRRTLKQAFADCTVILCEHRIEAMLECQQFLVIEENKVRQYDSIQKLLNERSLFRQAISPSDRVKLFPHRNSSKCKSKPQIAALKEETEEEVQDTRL

Row | SMILES | Emax [%] | EC50 [nM]
1 | COc1ccc(CCNC(=O)[C@@H]2CC(=O)N(C)[C@@H](CC(C)C)C(=O)N3CCCC[C@@H]3C(=O)N[C@H](Cc3ccccc3)COc3ccc4ncn(C)c4c3C(=O)N2)cc1 (racemic) [Example 25, (8RS,12S,18aR,21R)-21-benzyl-12-isobutyl-N-(4-methoxyphenethyl)-5,11-dimethyl-6,10,13,19-tetraoxo-6,7,8,9,10,11,12,13,16,17,18,18a,19,20,21,22-hexadecahydro-5H,15H-imidazo[4′,5′:5,6]benzo[1,2-p]pyrido[2,1-f][1]oxa[4,7,10,14]tetraazacycloheptadecine-8-carboxamide] | 142 | 547
2 | CC(C)C[C@H]1C(=O)N2CCCC[C@@H]2C(=O)N[C@H](Cc2ccccc2)COc2ccc3ncn(C)c3c2C(=O)N[C@H](C(=O)NCCc2ccccc2)CC(=O)N1C (racemic) [Example 27, (8RS,12S,18aR,21R)-21-benzyl-12-isobutyl-5,11-dimethyl-6,10,13,19-tetraoxo-N-phenethyl-6,7,8,9,10,11,12,13,16,17,18,18a,19,20,21,22-hexadecahydro-5H,15H-imidazo[4′,5′:5,6]benzo[1,2-p]pyrido[2,1-f][1]oxa[4,7,10,14]tetraazacycloheptadecine-8-carboxamide] | 114 | 474
3 | COc1cc2c(cc1OC)C(=O)N[C@H](C(=O)NCCc1ccc3c(c1)OCO3)CC(=O)N(C)[C@@H](CC(C)C)C(=O)N(CC[C@H]1CCCCO1)CC(=O)N[C@H](Cc1ccccc1)CO2 (racemic) [Example 155, (3R,9S,13S)-N-(2-(benzo[d][1,3]dioxol-5-yl)ethyl)-3-benzyl-9-isobutyl-17,18-dimethoxy-10-methyl-5,8,11,15-tetraoxo-7-(2-((RS)-tetrahydro-2H-pyran-2-yl)ethyl)-2,3,4,5,6,7,8,9,10,11,12,13,14,15-tetradecahydrobenzo[p][1]oxa[4,7,10,14]tetraazacycloheptadecine-13-carboxamide] | 144 | 260
4 | CC(C)C[C@H]1C(=O)N(C[C@H]2CCCCO2)CC(=O)N[C@H](Cc2ccccc2)COc2ccc3ccccc3c2C(=O)N[C@H](C(=O)NCCc2ccc3c(c2)OCO3)CC(=O)N1C (racemic) [Example 162, (3RS,7S,13R)-N-(2-(benzo[d][1,3]dioxol-5-yl)ethyl)-13-benzyl-7-isobutyl-6-methyl-1,5,8,11-tetraoxo-9-(((R)-tetrahydro-2H-pyran-2-yl)methyl)-1,2,3,4,5,6,7,8,9,10,11,12,13,14-tetradecahydronaphtho[1,2-p][1]oxa[4,7,10,14]tetraazacycloheptadecine-3-carboxamide] | 132 | –
5 | CC(C)C[C@H]1C(=O)N(C[C@@H]2CCCCO2)CC(=O)N[C@H](Cc2ccccc2)COc2ccc3ccccc3c2C(=O)N[C@H](C(=O)NCCc2ccc3c(c2)OCO3)CC(=O)N1C (racemic) [Example 163, (3RS,7S,13R)-N-(2-(benzo[d][1,3]dioxol-5-yl)ethyl)-13-benzyl-7-isobutyl-6-methyl-1,5,8,11-tetraoxo-9-(((S)-tetrahydro-2H-pyran-2-yl)methyl)-1,2,3,4,5,6,7,8,9,10,11,12,13,14-tetradecahydronaphtho[1,2-p][1]oxa[4,7,10,14]tetraazacycloheptadecine-3-carboxamide] | 185 | 377
6 | COc1cccc(CCNC(=O)[C@@H]2CC(=O)N(C)[C@@H](CC(C)C)C(=O)N(C[C@H]3CCCCO3)CC(=O)N[C@H](Cc3ccccc3)COc3ccc4ccccc4c3C(=O)N2)c1 (racemic) [Example 164, (3RS,7S,13R)-13-benzyl-7-isobutyl-N-(3-methoxyphenethyl)-6-methyl-1,5,8,11-tetraoxo-9-(((R)-tetrahydro-2H-pyran-2-yl)methyl)-1,2,3,4,5,6,7,8,9,10,11,12,13,14-tetradecahydronaphtho[1,2-p][1]oxa[4,7,10,14]tetraazacycloheptadecine-3-carboxamide] | 167 | –
7 | COc1cccc(CCNC(=O)[C@@H]2CC(=O)N(C)[C@@H](CC(C)C)C(=O)N(C[C@@H]3CCCCO3)CC(=O)N[C@H](Cc3ccccc3)COc3ccc4ccccc4c3C(=O)N2)c1 (racemic) [Example 165, (3RS,7S,13R)-13-benzyl-7-isobutyl-N-(3-methoxyphenethyl)-6-methyl-1,5,8,11-tetraoxo-9-(((S)-tetrahydro-2H-pyran-2-yl)methyl)-1,2,3,4,5,6,7,8,9,10,11,12,13,14-tetradecahydronaphtho[1,2-p][1]oxa[4,7,10,14]tetraazacycloheptadecine-3-carboxamide] | 149 | 287

Now from value to compound, other results behind:

Row | Emax [%] | SMILES | EC50 [nM]
8 | 137 | COc1cccc2c1C(=O)N[C@H](C(=O)NCCc1nc3ccccc3o1)CC(=O)N(C)[C@@H](CC(C)C)C(=O)N(CCC1CCCCC1)CC(=O)N[C@H](Cc1ccccc1)CO2 (racemic) [Example 16, (3R,9S,13RS)-N-(2-(benzo[d]oxazol-2-yl)ethyl)-3-benzyl-7-(2-cyclohexylethyl)-9-isobutyl-16-methoxy-10-methyl-5,8,11,15-tetraoxo-2,3,4,5,6,7,8,9,10,11,12,13,14,15-tetradecahydrobenzo[p][1]oxa[4,7,10,14]tetraazacycloheptadecine-13-carboxamide] | –
9 | 115 | Cc1csc(CCNC(=O)[C@@H]2CC(=O)N(C)[C@@H](CC(C)C)C(=O)N3CCCC[C@@H]3C(=O)N[C@H](Cc3ccccc3)COc3ccc4ncn(C)c4c3C(=O)N2)n1 (racemic) [Example 23, (8RS,12S,18aR,21R)-21-benzyl-12-isobutyl-5,11-dimethyl-N-(2-(4-methylthiazol-2-yl)ethyl)-6,10,13,19-tetraoxo-6,7,8,9,10,11,12,13,16,17,18,18a,19,20,21,22-hexadecahydro-5H,15H-imidazo[4′,5′:5,6]benzo[1,2-p]pyrido[2,1-f][1]oxa[4,7,10,14]tetraazacycloheptadecine-8-carboxamide] | –
10 | 131 | Cc1cnc(CCNC(=O)[C@@H]2CC(=O)N(C)[C@@H](CC(C)C)C(=O)N3CCCC[C@@H]3C(=O)N[C@H](Cc3ccccc3)COc3ccc4ncn(C)c4c3C(=O)N2)s1 (racemic) [Example 24, (8RS,12S,18aR,21R)-21-benzyl-12-isobutyl-5,11-dimethyl-N-(2-(5-methylthiazol-2-yl)ethyl)-6,10,13,19-tetraoxo-6,7,8,9,10,11,12,13,16,17,18,18a,19,20,21,22-hexadecahydro-5H,15H-imidazo[4′,5′:5,6]benzo[1,2-p]pyrido[2,1-f][1]oxa[4,7,10,14]tetraazacycloheptadecine-8-carboxamide] | 823
11 | 111 | CC(C)C[C@H]1C(=O)N2CCCC[C@@H]2C(=O)N[C@H](Cc2ccccc2)COc2ccc3ncn(C)c3c2C(=O)N[C@H](C(=O)NCCc2cccc(OC(F)F)c2)CC(=O)N1C (racemic) [Example 26, (8RS,12S,18aR,21R)-21-benzyl-N-(3-(difluoromethoxy)phenethyl)-12-isobutyl-5,11-dimethyl-6,10,13,19-tetraoxo-6,7,8,9,10,11,12,13,16,17,18,18a,19,20,21,22-hexadecahydro-5H,15H-imidazo[4′,5′:5,6]benzo[1,2-p]pyrido[2,1-f][1]oxa[4,7,10,14]tetraazacycloheptadecine-8-carboxamide] | 299
12 | 106 | CC(C)C[C@H]1C(=O)N2CCCC[C@@H]2C(=O)N[C@H](Cc2ccccc2)COc2ccc3ncn(C)c3c2C(=O)N[C@H](C(=O)NCCc2cccc(-n3nccn3)c2)CC(=O)N1C (racemic) [Example 28, (8RS,12S,18aR,21R)-N-(3-(2H-1,2,3-triazol-2-yl)phenethyl)-21-benzyl-12-isobutyl-5,11-dimethyl-6,10,13,19-tetraoxo-6,7,8,9,10,11,12,13,16,17,18,18a,19,20,21,22-hexadecahydro-5H,15H-imidazo[4′,5′:5,6]benzo[1,2-p]pyrido[2,1-f][1]oxa[4,7,10,14]tetraazacycloheptadecine-8-carboxamide] | –
13 | 106 | COc1cccc(CCNC(=O)[C@@H]2CC(=O)N(C)[C@@H](CC(C)C)C(=O)N(C)CC(=O)N[C@H](Cc3ccccc3)COc3cc4c(cc3C(=O)N2)OCO4)c1OC (racemic) [Example 151, (7R,13S,17RS)-7-benzyl-N-(2,3-dimethoxyphenethyl)-13-isobutyl-11,14-dimethyl-9,12,15,19-tetraoxo-6,7,8,9,10,11,12,13,14,15,16,17,18,19-tetradecahydro-[1,3]dioxolo[4′,5′:4,5]benzo[1,2-p][1]oxa[4,7,10,14]tetraazacycloheptadecine-17-carboxamide] | –
14 | 133 | COc1cc2c(cc1OC)C(=O)N[C@H](C(=O)NCCc1ccc3c(c1)CCO3)CC(=O)N(C)[C@@H](CC(C)C)C(=O)N(C)CC(=O)N[C@H](Cc1ccccc1)CO2 (racemic) [Example 152, (3R,9S,13RS)-3-benzyl-N-(2-(2,3-dihydrobenzofuran-5-yl)ethyl)-9-isobutyl-17,18-dimethoxy-7,10-dimethyl-5,8,11,15-tetraoxo-2,3,4,5,6,7,8,9,10,11,12,13,14,15-tetradecahydrobenzo[p][1]oxa[4,7,10,14]tetraazacycloheptadecine-13-carboxamide] | –
15 | 121 | COc1cccc2c1C(=O)N[C@H](C(=O)NCCC1CCC(C)(C)CO1)CC(=O)N(C)[C@@H](CC(C)C)C(=O)N(CCC1CCCCC1)CC(=O)N[C@H](Cc1ccccc1)CO2 (mixture of isomers) [Example 157, (3R,9S,13S)-3-benzyl-7-(2-cyclohexylethyl)-N-((RS)-2-(5,5-dimethyltetrahydro-2H-pyran-2-yl)ethyl)-9-isobutyl-16-methoxy-10-methyl-5,8,11,15-tetraoxo-2,3,4,5,6,7,8,9,10,11,12,13,14,15-tetradecahydrobenzo[p][1]oxa[4,7,10,14]tetraazacycloheptadecine-13-carboxamide] | 395
